Assay results taken from patent publication US20240287076A1, “COMPOUNDS FOR TARGETING DEGRADATION OF BRUTON'S TYROSINE KINASE” (BIOGEN MA INC., priority 2021, published 2024).

target: T1, BTK (Homo sapiens, UniProt Q06187); assay: BTK degradation assay using the HiBiT Method (Nano-Glo HiBiT Lytic Assay, GM01501.3 cells); type: cell-based; conditions: HiBiT Degradation on GM01501.3 BTK @ 6 hours
T1 construct: The GM01501.3 cell line endogenously expresses BTK with a HiBiT fusion tag via CRISPR knock-in at its C-terminal region; endogenous in cells; host or cells: GM01501.3 (GM01501 cells engineered by CRISPR knock-in of HiBiT at the BTK locus)
Procedure, shortened: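 CRISPR knock-in GM01501.3 cells expressing endogenous BTK with C-terminal HiBiT tag, treated 6 h at 37 °C with compounds, 11-point half-log titration from 10 μM top, duplicates. Remaining BTK quantified by Nano-Glo HiBiT lytic luminescence versus DMSO controls; DC50 reported.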

T1 sequence (Q06187 whole entry, the tested form may be a part): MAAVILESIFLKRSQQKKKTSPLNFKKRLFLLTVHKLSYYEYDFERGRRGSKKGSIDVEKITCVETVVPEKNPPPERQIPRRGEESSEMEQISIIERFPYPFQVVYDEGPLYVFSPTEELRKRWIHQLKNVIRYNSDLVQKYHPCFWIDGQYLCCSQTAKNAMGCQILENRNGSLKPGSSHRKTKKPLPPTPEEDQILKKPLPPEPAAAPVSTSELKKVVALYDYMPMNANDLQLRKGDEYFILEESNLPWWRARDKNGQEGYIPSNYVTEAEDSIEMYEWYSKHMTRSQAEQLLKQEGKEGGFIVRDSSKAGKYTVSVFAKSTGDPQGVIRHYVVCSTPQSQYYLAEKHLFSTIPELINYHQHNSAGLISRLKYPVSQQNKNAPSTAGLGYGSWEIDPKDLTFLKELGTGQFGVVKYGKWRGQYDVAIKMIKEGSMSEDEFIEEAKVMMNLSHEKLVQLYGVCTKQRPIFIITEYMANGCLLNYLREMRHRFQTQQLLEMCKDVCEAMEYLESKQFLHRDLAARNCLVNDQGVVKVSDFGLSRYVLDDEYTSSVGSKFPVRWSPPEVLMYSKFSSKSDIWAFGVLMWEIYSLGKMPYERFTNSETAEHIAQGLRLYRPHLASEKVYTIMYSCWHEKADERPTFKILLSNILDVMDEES

| Compound | DC50 [nM] |
| --- | --- |
| Cc1cc(-c2ncnn3cc(C4CC4CN4CCC(c5ccc(NC6CCC(=O)NC6=O)cc5)CC4)cc23)ccc1CNC(=O)c1noc(C(C)(C)C)n1 (stereo not shown) [Example 145, 5-tert-butyl-N-[[4-[6-[2-[[4-[4-[(2,6-dioxo-3-piperidyl)amino]phenyl]-1-piperidyl]methyl]cyclopropyl]pyrrolo[2,1-f][1,2,4]triazin-4-yl]-2-methyl-phenyl]methyl]-1,2,4-oxadiazole-3-carboxamide] | < 100 |
| Cc1cc(-c2ncnn3cc(-c4ccc(N5CCC(c6ccc(C7CCC(=O)NC7=O)cc6)CC5)cc4)cc23)ccc1CNC(=O)c1noc(C(C)(C)C)n1 (stereo not shown) [Example 146, 5-tert-butyl-N-[[4-[6-[4-[4-[4-(2,6-dioxo-3-piperidyl)phenyl]-1-piperidyl]phenyl]pyrrolo[2,1-f][1,2,4]triazin-4-yl]-2-methyl-phenyl]methyl]-1,2,4-oxadiazole-3-carboxamide] | 100 to 500 |
| Cc1cc(-c2ncnn3cc(-c4ccc(COCCCc5ccc(NC6CCC(=O)NC6=O)cc5)cc4)cc23)ccc1CNC(=O)c1noc(C(C)(C)C)n1 (stereo not shown) [Example 147, 5-tert-butyl-N-[[4-[6-[4-[3-[4-[(2,6-dioxo-3-piperidyl)amino]phenyl]propoxymethyl]phenyl]pyrrolo[2,1-f][1,2,4]triazin-4-yl]-2-methyl-phenyl]methyl]-1,2,4-oxadiazole-3-carboxamide] | 100 to 500 |
| Cc1cc(-c2ncnn3cc(CCCCN4CC(c5ccc(NC6CCC(=O)NC6=O)cc5)C4)cc23)ccc1CNC(=O)c1noc(C(C)(C)C)n1 (stereo not shown) [Example 148, 5-tert-butyl-N-[[4-[6-[4-[3-[4-[(2,6-dioxo-3-piperidyl)amino]phenyl]azetidin-1-yl]butyl]pyrrolo[2,1-f][1,2,4]triazin-4-yl]-2-methyl-phenyl]methyl]-1,2,4-oxadiazole-3-carboxamide] | 100 to 500 |
| Cc1cc(-c2ncnn3cc(-c4ccc(CCCCc5ccc(NC6CCC(=O)NC6=O)cc5)cc4)cc23)ccc1CNC(=O)c1noc(C(C)(C)C)n1 (stereo not shown) [Example 149, 5-tert-butyl-N-[[4-[6-[4-[4-[4-[(2,6-dioxo-3-piperidyl)amino]phenyl]butyl]phenyl]pyrrolo[2,1-f][1,2,4]triazin-4-yl]-2-methyl-phenyl]methyl]-1,2,4-oxadiazole-3-carboxamide] | 100 to 500 |
| Cc1cc(-c2ncnn3cc(-c4ccc(CN(C)CC(F)(F)Cc5ccc(NC6CCC(=O)NC6=O)cc5)cc4)cc23)ccc1CNC(=O)c1noc(C(C)(C)C)n1 (stereo not shown) [Example 150, 5-tert-butyl-N-[[4-[6-[4-[[[3-[4-[(2,6-dioxo-3-piperidyl)amino]phenyl]-2,2-difluoro-propyl]-methyl-amino]methyl]phenyl]pyrrolo[2,1-f][1,2,4]triazin-4-yl]-2-methyl-phenyl]methyl]-1,2,4-oxadiazole-3-carboxamide] | 100 to 500 |
| Cc1cc(-c2ncnn3cc(CCCCc4ccc(-c5ccc(C6CCC(=O)NC6=O)cc5)cc4)cc23)ccc1CNC(=O)c1noc(C(C)(C)C)n1 (stereo not shown) [Example 151, 5-tert-butyl-N-[[4-[6-[4-[4-[4-(2,6-dioxo-3-piperidyl)phenyl]phenyl]butyl]pyrrolo[2,1-f][1,2,4]triazin-4-yl]-2-methyl-phenyl]methyl]-1,2,4-oxadiazole-3-carboxamide] | 100 to 500 |
| Cc1c(NC(=O)c2cc3c(s2)CCCC3)cc(F)cc1-c1ncnn2cc(-c3ccc(CN4CCC(c5ccc(NC6CCC(=O)NC6=O)cc5)CC4)cc3)cc12 (stereo not shown) [Example 152, N-(3-(6-(4-((4-(4-((2,6-dioxopiperidin-3-yl)amino)phenyl)piperidin-1-yl)methyl)phenyl)pyrrolo[2,1-f][1,2,4]triazin-4-yl)-5-fluoro-2-methylphenyl)-4,5,6,7-tetrahydrobenzo[b]thiophene-2-carboxamide] | < 100 |
| Cc1c(NC(=O)c2ccc(C(C)(C)O)cc2)cc(F)cc1-c1ncnn2cc(-c3ccc(CN4CCC(c5ccc(NC6CCC(=O)NC6=O)cc5)CC4)cc3)cc12 (stereo not shown) [Example 153, N-[3-[6-[4-[[4-[4-[(2,6-dioxo-3-piperidyl)amino]phenyl]-1-piperidyl]methyl]phenyl]pyrrolo[2,1-f][1,2,4]triazin-4-yl]-5-fluoro-2-methyl-phenyl]-4-(1-hydroxy-1-methyl-ethyl)benzamide] | < 100 |
| Cc1cc(-c2ccnn3cc(-c4ccc(CN5CCC(c6ccc(NC7CCC(=O)NC7=O)cc6)CC5)cc4)cc23)ccc1CNC(=O)c1noc(C(C)(C)C)n1 (stereo not shown) [Example 154, 5-tert-butyl-N-[[4-[6-[4-[[4-[4-[(2,6-dioxo-3-piperidyl)amino]phenyl]-1-piperidyl]methyl]phenyl]pyrrolo[1,2-b]pyridazin-4-yl]-2-methyl-phenyl]methyl]-1,2,4-oxadiazole-3-carboxamide] | < 100 |
| Cc1cc(-c2ccnn3cc(CCN4CCC(c5ccc(NC6CCC(=O)NC6=O)cc5)CC4)cc23)ccc1CNC(=O)c1noc(C(C)(C)C)n1 (stereo not shown) [Example 155, 5-tert-butyl-N-[[4-[6-[2-[4-[4-[(2,6-dioxo-3-piperidyl)amino]phenyl]-1-piperidyl]ethyl]pyrrolo[1,2-b]pyridazin-4-yl]-2-methyl-phenyl]methyl]-1,2,4-oxadiazole-3-carboxamide] | < 100 |
| Cc1cc(-c2ccnn3cc(CCCCN4CCC(c5ccc(NC6CCC(=O)NC6=O)cc5)CC4)cc23)ccc1CNC(=O)c1noc(C(C)(C)C)n1 (stereo not shown) [Example 156, 5-tert-butyl-N-[[4-[6-[4-[4-[4-[(2,6-dioxo-3-piperidyl)amino]phenyl]-1-piperidyl]butyl]pyrrolo[1,2-b]pyridazin-4-yl]-2-methyl-phenyl]methyl]-1,2,4-oxadiazole-3-carboxamide] | < 100 |
| Cc1cc(-c2ccnc3sc(-c4ccc(CN5CCC(c6ccc(NC7CCC(=O)NC7=O)cc6)CC5)cc4)cc23)ccc1CNC(=O)c1noc(C(C)(C)C)n1 (stereo not shown) [Example 157, 5-tert-butyl-N-[[4-[2-[4-[[4-[4-[(2,6-dioxo-3-piperidyl)amino]phenyl]-1-piperidyl]methyl]phenyl]thieno[2,3-b]pyridin-4-yl]-2-methyl-phenyl]methyl]-1,2,4-oxadiazole-3-carboxamide] | 100 to 500 |
| Cc1cc(-c2ccnc3sc(CCCCN4CCC(c5ccc(NC6CCC(=O)NC6=O)cc5)CC4)cc23)ccc1CNC(=O)c1noc(C(C)(C)C)n1 (stereo not shown) [Example 158, 5-tert-butyl-N-[[4-[2-[4-[4-[4-[(2,6-dioxo-3-piperidyl)amino]phenyl]-1-piperidyl]butyl]thieno[2,3-b]pyridin-4-yl]-2-methyl-phenyl]methyl]-1,2,4-oxadiazole-3-carboxamide] | 100 to 500 |
| Cc1cc(-c2ccnc3nn(-c4ccc(CN5CCC(c6ccc(NC7CCC(=O)NC7=O)cc6)CC5)cc4)cc23)ccc1CNC(=O)c1noc(C(C)(C)C)n1 (stereo not shown) [Example 159, 5-tert-butyl-N-[[4-[2-[4-[[4-[4-[(2,6-dioxo-3-piperidyl)amino]phenyl]-1-piperidyl]methyl]phenyl]pyrazolo[3,4-b]pyridin-4-yl]-2-methyl-phenyl]methyl]-1,2,4-oxadiazole-3-carboxamide] | 100 to 500 |
| Cc1cc(-c2ccnc3nn(CCCCN4CCC(c5ccc(NC6CCC(=O)NC6=O)cc5)CC4)cc23)ccc1CNC(=O)c1noc(C(C)(C)C)n1 (stereo not shown) [Example 160, 5-tert-butyl-N-[[4-[2-[4-[4-[4-[(2,6-dioxo-3-piperidyl)amino]phenyl]-1-piperidyl]butyl]pyrazolo[3,4-b]pyridin-4-yl]-2-methyl-phenyl]methyl]-1,2,4-oxadiazole-3-carboxamide] | > 1000 |
